Drawing on US7384952B2, “Pyrazolopyrimidine compound and a process for preparing the same” (Mitsubishi Tanabe Pharma Corporation, priority 2003, dated 2008), this text covers IC50 for one molecule.

The target in this assay is SK channel. Briefly: competitive apamin-binding inhibition assay (same manner as WO02/079189, Experiment 1). To be noted: competitive binding assay against apamin, a selective SK channel blocker; read-out: apamin-binding inhibitory activity (IC50).

One may read the IC50 as the point on the concentration scale where inhibition reaches its midpoint. On to `CCOc1cccc(Cn2ncc3c(N4CCN(C(=O)c5ccc(N(CCN(C)C)C(=O)C6CC6)cc5)CC4)ncnc32)c1` [1-(3-ethoxybenzyl)-4-[4-[4-[N-(cyclopropyl-carbonyl)-N-[2-(dimethylamino)ethyl]amino]benzoyl]piperazin-1-yl]-1H-pyrazolo[3,4-d]pyrimidine], for which the 50% inhibitory concentration (IC50) stood at 50 nM.
